In ChEMBL document CHEMBL3808318, “Design, synthesis and inhibitory activity against human dihydroorotate dehydrogenase (hDHODH) of 1,3-benzoazole derivatives bearing amide units” (Bioorg Med Chem Lett, 2016):

biological target: T1, Dihydroorotate dehydrogenase (quinone), mitochondrial (Homo sapiens, UniProt Q02127); assay: Inhibition of human DHODH assessed as decrease in DCIP at 10 uM using dihydroorotate as substrate measured every 30 seconds for 6 mins
T1 sequence (Q02127 whole entry): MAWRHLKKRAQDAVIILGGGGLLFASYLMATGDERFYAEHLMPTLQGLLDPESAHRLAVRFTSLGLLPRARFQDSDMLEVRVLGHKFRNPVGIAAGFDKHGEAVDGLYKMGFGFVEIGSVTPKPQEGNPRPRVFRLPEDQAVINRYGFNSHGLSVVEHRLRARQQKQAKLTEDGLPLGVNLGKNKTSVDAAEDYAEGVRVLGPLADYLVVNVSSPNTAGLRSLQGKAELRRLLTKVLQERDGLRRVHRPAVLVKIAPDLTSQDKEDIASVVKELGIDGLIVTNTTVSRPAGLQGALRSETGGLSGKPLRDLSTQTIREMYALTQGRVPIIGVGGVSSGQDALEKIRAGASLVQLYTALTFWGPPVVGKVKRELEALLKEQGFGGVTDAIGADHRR

Row | inhibition | SMILES
1 | 24.8% | O=C(Nc1ccccc1I)c1cccc2nc(-c3cc(Br)nn3-c3ncccc3Cl)[nH]c12
2 | 30.1% | CCCNC(=O)c1cccc2oc(-c3cc(Br)nn3-c3ncccc3Cl)nc12
3 | 9.43% | COc1cccc(C)c1NC(=O)c1cccc2nc(-c3cc(Br)nn3-c3ncccc3Cl)[nH]c12
4 | 18.9% | Cc1cccc(NC(=O)c2cccc3nc(-c4cc(Br)nn4-c4ncccc4Cl)[nH]c23)c1
5 | 64% | C/C(O)=C(\C#N)C(=O)Nc1ccc(C(F)(F)F)cc1
6 | 55.2% | COc1ccc(C(F)(F)F)cc1NC(=O)c1cccc2nc(-c3cc(Br)nn3-c3ncccc3Cl)[nH]c12
7 | 32% | O=C(NCc1ccc(C(F)(F)F)cc1)c1cccc2nc(-c3cc(Br)nn3-c3ncccc3Cl)[nH]c12
8 | 0% | COc1cccc(OC)c1NC(=O)c1cccc2nc(-c3cc(Br)nn3-c3ncccc3Cl)[nH]c12
9 | 26.6% | CCCNC(=O)c1cccc2nc(-c3cc(Br)nn3-c3ncccc3Cl)oc12
10 | 27.6% | O=C(Nc1ccccc1Br)c1cccc2nc(-c3cc(Br)nn3-c3ncccc3Cl)[nH]c12
11 | 36.1% | COc1ccc(NC(=O)c2cccc3nc(-c4cc(Br)nn4-c4ncccc4Cl)[nH]c23)cc1
12 | 26.9% | O=C(Nc1ccc(F)cc1F)c1cccc2nc(-c3cc(Br)nn3-c3ncccc3Cl)[nH]c12
13 | 27.6% | O=C(NCc1ccccn1)c1cccc2nc(-c3cc(Br)nn3-c3ncccc3Cl)[nH]c12
14 | 73.9% | Cc1ccccc1NC(=O)c1cccc2nc(-c3cc(Br)nn3-c3ncccc3Cl)[nH]c12
15 | 44% | O=C(NCc1ccc(Cl)cc1)c1cccc2nc(-c3cc(Br)nn3-c3ncccc3Cl)[nH]c12
16 | 23.4% | CCCNC(=O)c1cccc2nc(-c3cc(Br)nn3-c3ncccc3Cl)[nH]c12
17 | 31.9% | O=C(Nc1ccc(F)c(F)c1F)c1cccc2nc(-c3cc(Br)nn3-c3ncccc3Cl)[nH]c12
18 | 22.7% | Cc1ccc(CNC(=O)c2cccc3nc(-c4cc(Br)nn4-c4ncccc4Cl)[nH]c23)cc1
19 | 24.9% | CCNC(=O)c1cccc2nc(-c3cc(Br)nn3-c3ncccc3Cl)[nH]c12
20 | 15.7% | COc1cccc(F)c1NC(=O)c1cccc2nc(-c3cc(Br)nn3-c3ncccc3Cl)[nH]c12
21 | 60.5% | COc1ccccc1NC(=O)c1cccc2nc(-c3cc(Br)nn3-c3ncccc3Cl)[nH]c12
22 | 48.8% | Cc1ccc(NC(=O)c2cccc3nc(-c4cc(Br)nn4-c4ncccc4Cl)[nH]c23)c(C)c1
23 | 34.9% | O=C(NCc1ccccc1)c1cccc2nc(-c3cc(Br)nn3-c3ncccc3Cl)[nH]c12
24 | 38.8% | O=C(Nc1ccccc1F)c1cccc2nc(-c3cc(Br)nn3-c3ncccc3Cl)[nH]c12
25 | 49.4% | O=C(Nc1ccccc1)c1cccc2nc(-c3cc(Br)nn3-c3ncccc3Cl)[nH]c12
26 | 43% | O=C(NCc1c(F)ccc(F)c1F)c1cccc2nc(-c3cc(Br)nn3-c3ncccc3Cl)[nH]c12
27 | 1.3% | COc1ccc(NC(=O)c2cccc3nc(-c4cc(Br)nn4-c4ncccc4Cl)[nH]c23)c(OC)c1
28 | 36.3% | O=C(Nc1ccc(C(F)(F)F)cc1)c1cccc2nc(-c3cc(Br)nn3-c3ncccc3Cl)[nH]c12
29 | 14.1% | CNC(=O)c1cccc2nc(-c3cc(Br)nn3-c3ncccc3Cl)[nH]c12

biological target: T1, Dihydroorotate dehydrogenase (quinone), mitochondrial; assay: Inhibition of human DHODH assessed as decrease in DCIP using dihydroorotate as substrate measured every 30 seconds for 6 mins

Row | IC50 | SMILES
30 | 4850 nM | COc1ccc(C(F)(F)F)cc1NC(=O)c1cccc2nc(-c3cc(Br)nn3-c3ncccc3Cl)[nH]c12
31 | 676 nM | Cc1ccccc1NC(=O)c1cccc2nc(-c3cc(Br)nn3-c3ncccc3Cl)[nH]c12
32 | 178 nM | COc1ccccc1NC(=O)c1cccc2nc(-c3cc(Br)nn3-c3ncccc3Cl)[nH]c12

biological target: T1, Dihydroorotate dehydrogenase (quinone), mitochondrial; assay: Potency index, ratio of A771726 IC50 to compound IC50 for human DHODH

Row | Ratio IC50 | SMILES
33 | 2 | COc1ccccc1NC(=O)c1cccc2nc(-c3cc(Br)nn3-c3ncccc3Cl)[nH]c12
